Experimental data from PMC4459817, “Vasculotide reduces endothelial permeability and tumor cell extravasation in the absence of binding to or agonistic activation of Tie2” (EMBO Molecular Medicine, 2015).
“Also recorded” adds a separate entry of the source.

Test system: LM2-4luc lymphatic metastases in SCID mice
Assay: experimental LM2-4luc lymphatic metastasis model (IV)
Assay type: in vivo, human LM2-4luc cells in CB-17 SCID mice
Details: n = 12; for progression of lymphatic metastases (bioluminescence): VT 250 ng/2d, SU pretreatment, Kruskal–Wallis, Fig2F–H
Description: (C and G) Photographs of typical metastases in the lungs and caudal lymphatics, respectively. […] Geometric means ± 95%CI are depicted in (D and H); P values were derived by one-way ANOVA (D) and Kruskal–Wallis test (H). […] TEXT PRINTED IN THE PICTURE: (A) Vasculotide (VT): Hazard ratio = 0.13 (95% CI, 0.03 to 0.63) | (A) SU+VT: Hazard ratio = 0.19 (95% CI, 0.04 to 0.81) DOUBTS OF THE COPYIST ABOUT THIS PICTURE: Vasculotide (VT), Hazard ratio: small print; 0.13 could be 0.15 or 0.18, and the CI limits 0.03 and 0.63 are uncertain in the digits 3/5/6/8 / SU+VT, Hazard ratio: small print; 0.19 could be 0.18 or 0.16, and the CI limits 0.04 and 0.81 are uncertain in the digits / Panel A: each hazard ratio is printed under a pair of legend entries (Vehicle / Vasculotide (VT), and Sunitinib (SU) / SU+VT). Assigning it to the VT-treated arm of each pair is my assumption.
In vivo experiments were performed in strict accordance with protocols approved by the Sunnybrook Research Institute Animal Care Committee, accredited by the Canadian Council of Animal Care. All surgical, imaging, and euthanasia procedures were performed under inhaled isoflurane anesthesia. Experimental metastasis models involved injections of 10^6 tumor cells, suspended in 200 μl serum-free DMEM, into the mouse tail vein. LM2-4^luc implantations were performed on 6 to 8-week-old female CB-17 SCID mice (Charles River Canada). […]
For in vivo BI: Mice were injected intraperitoneally with 150mg/kg luciferin (Promega) 10 minutes prior to and anesthetized with isofluorane just before luminescent pseudocolor imaging (uniform settings: CCD camera locked at -105 °C, exposure=60s, f/1, subject size=1.5cm, bin=8, FOV=23.2cm, full image correction) using the IVIS 200 Imaging System (Caliper/PerkinElmer). Using the Living Image software (v2.50.1, Xenogen), weekly images were analyzed under uniform color range on grayscale photographic overlay. Total fluxes (photons/sec) were quantified within consistent regions of interest and statistically compared ideally at a timepoint before any deaths have occurred. […]

Compound	progression of lymphatic metastases (bioluminescence) (listed as SU)	progression of lymphatic metastases (bioluminescence)	survival rates (VT, Fig2E, listed as VT)
CCN(CC)CCNC(=O)c1c(C)[nH]c(/C=C2\C(=O)Nc3ccc(F)cc32)c1C [sunitinib, reference compound]	did not similarly promote lymphatic metastases; also recorded: did not accelerate their progression	–	–
CHHHRHSF [Vasculotide, 4-armed maleimide-functionalized polyethylene glycol (PEG) backbone to link together four cysteine-capped T7 peptides, that is, CHHHRHSF]	–	no significant effect on survival rates (Fig2E) or the progression of lymphatic metastases	no significant effect on survival rates
